Experimental data reported in patent US9085605B2, “Chemical synthesis and anti-tumor and anti-metastatic effects of dual functional conjugate” (Shenzhen Salubris Pharmaceuticals Co., Ltd., priority 2010, dated 2015).

Key:
[1] = system: human breast cancer line MDA-MB-231; assay: Tumor growth inhibition in nude mice xenograft model, MDA-MB-231
Procedure: • 1. […] Drug administration dose were set as: 10 mg/kg, 15 mg/kg, and 20 mk/kg, drug administration volume was 0.2 mL/20 g. • 2. […] MDA [Peptide (P) 0.54 mg/mL (0.001M), Example 10], a colorless and clear liquid, was prepared by the commission, can be directly used after the repackaging in a sterile condition, stored at 4° C. […] Certificate NO. […] SYSK (BeiJing) 2004-0001. Experiment Methods:
The mice were divided into groups and administrated drug after 11 days.
The mice were divided into eight groups, each group had 6-8 mice. The groups contained Negative control. […] After grouping, all mice were administrated with drug by intraperitoneal injection once a day depends on their body weight.
Other groups were administered with drugs for 24 times successively. The experiment was completed 24 h after the last administration.
The mice were sacrificed, and tumors were isolated and their weight was measured, and the inhibition rate of tumor growth by drugs were calculated. […] Calculation methods and formula were omitted.

[2] = system: 60 human tumor cell lines; assay: NCI screening of antitumor activity in vitro in 60 human tumor cell lines; format: cell-based
Source text: The experimental results refer to FIGS. 1-12.

[3] = system: 10 human tumor cell lines; assay: Antitumor activity screening in 10 human tumor cell lines; format: cell-based
Source text: In the invention, the compounds, MTC-301, MTC-302, MTC-303, MTC-304, MTC-305, MTC-306, MTC-307, MDC-308, MDC-403, MDC-404, MDC-405. MDC-406, MDC-407 and MDC-408 were screened their antitumor activity in 10 human tumor cell lines. […] The experimental results refer to FIGS. 13-16.

Q: Which “Tumor growth rate (in words)” value ([1]; MDA 0.54 mg/mL × 24) does the source give for `CC(NC(=O)/C=C/c1ccc(Cl)cc1)C(=O)N[C@@H](CCC(=O)NC(CCCCN)C(N)=O)C(N)=O` (stereo partly shown) [MDA] here?
A: The value was “slower than the tumor growth rate of the negative control group”.

Q: And the RTV ([1]; MDA 0.54 mg/mL × 24, i.p.)?
A: Its RTV is 15.06 ± 5.292.

Q: And the T/C ([1]; MDA 0.54 mg/mL × 24, i.p.)?
A: Its T/C is 83.5%.

Q: What about the TGI ([1]; MDA 0.54 mg/mL × 24, i.p.) of the same compound?
A: The TGI was 30.3%.

Q: What about the “Tumor volume Beginning” value ([1]; MDA 0.54 mg/mL × 24, i.p.) of the same compound?
A: Its value is 141 ± 61.1 mm^3.

Q: And the “Tumor volume End” value ([1]; MDA 0.54 mg/mL × 24, i.p.)?
A: Its value is 1898 ± 775.4 mm^3.

Q: What about the Tumor weight ([1]; MDA 0.54 mg/mL × 24, i.p.) of the same compound?
A: Its Tumor weight is 1.98 ± 0.744 g.

Q: Which “50% growth inhibition (GI50) activity” value [2] does the source give for `CC(=O)O[C@@]12CO[C@@H]1C[C@H](O)[C@@]1(C)C(=O)[C@H](O)C3=C(C)[C@@H](OC(=O)[C@H](OC(=O)CCC(=O)NCCCCC(NC(=O)CC[C@H](NC(=O)C(C)NC(=O)/C=C/c4ccc(Cl)cc4)C(N)=O)C(N)=O)[C@@H](NC(=O)OC(C)(C)C)c4ccccc4)C[C@@](O)([C@@H](OC(=O)c4ccccc4)[C@H]21)C3(C)C` (stereo partly shown) [MDC-400] here?
A: Its value is “in the same magnitude range as paclitaxel”.

Q: `CC(=O)O[C@@]12CO[C@@H]1C[C@H](O)[C@@]1(C)C(=O)[C@H](O)C3=C(C)[C@@H](OC(=O)[C@H](OC(=O)CCC(=O)NCCCCC(NC(=O)CC[C@H](NC(=O)C(C)NC(=O)/C=C/c4ccc(F)cc4F)C(N)=O)C(N)=O)[C@@H](NC(=O)OC(C)(C)C)c4ccccc4)C[C@@](O)([C@@H](OC(=O)c4ccccc4)[C@H]21)C3(C)C` (stereo partly shown) [MDC-403] was tested. Which “50% growth inhibition (GI50) activity” value [3] did it give?
A: Its value is “in the same magnitude range as paclitaxel or docetaxel”.

Q: Which “50% growth inhibition (GI50) activity” value [3] does the source give for `CC(=O)O[C@@]12CO[C@@H]1C[C@H](O)[C@@]1(C)C(=O)[C@H](O)C3=C(C)[C@@H](OC(=O)[C@H](OC(=O)CCC(=O)NCCCCC(NC(=O)CC[C@H](NC(=O)C(C)NC(=O)/C=C/c4ccc(Cl)cc4F)C(N)=O)C(N)=O)[C@@H](NC(=O)OC(C)(C)C)c4ccccc4)C[C@@](O)([C@@H](OC(=O)c4ccccc4)[C@H]21)C3(C)C` (stereo partly shown) [MDC-404] here?
A: Its value is “in the same magnitude range as paclitaxel or docetaxel”.

Q: How did the “50% growth inhibition (GI50) activity” value [3] turn out when `CC(=O)O[C@@]12CO[C@@H]1C[C@H](O)[C@@]1(C)C(=O)[C@H](O)C3=C(C)[C@@H](OC(=O)[C@H](OC(=O)CCC(=O)NCCCCC(NC(=O)CC[C@H](NC(=O)C(C)NC(=O)/C=C/c4ccc(F)cc4Cl)C(N)=O)C(N)=O)[C@@H](NC(=O)OC(C)(C)C)c4ccccc4)C[C@@](O)([C@@H](OC(=O)c4ccccc4)[C@H]21)C3(C)C` (stereo partly shown) [MDC-405] was run?
A: The value was “in the same magnitude range as paclitaxel or docetaxel”.

Q: Which “50% growth inhibition (GI50) activity” value [3] does the source give for `CC(=O)O[C@@]12CO[C@@H]1C[C@H](O)[C@@]1(C)C(=O)[C@H](O)C3=C(C)[C@@H](OC(=O)[C@H](OC(=O)CCC(=O)NCCCCC(NC(=O)CC[C@H](NC(=O)C(C)NC(=O)/C=C/c4ccc(F)cc4)C(N)=O)C(N)=O)[C@@H](NC(=O)OC(C)(C)C)c4ccccc4)C[C@@](O)([C@@H](OC(=O)c4ccccc4)[C@H]21)C3(C)C` (stereo partly shown) [MDC-406] here?
A: The value was “in the same magnitude range as paclitaxel or docetaxel”.

Q: With `CC(=O)O[C@@]12CO[C@@H]1C[C@H](O)[C@@]1(C)C(=O)[C@H](O)C3=C(C)[C@@H](OC(=O)[C@H](OC(=O)CCC(=O)NCCCCC(NC(=O)CC[C@H](NC(=O)C(C)NC(=O)/C=C/c4cccc(F)c4)C(N)=O)C(N)=O)[C@@H](NC(=O)OC(C)(C)C)c4ccccc4)C[C@@](O)([C@@H](OC(=O)c4ccccc4)[C@H]21)C3(C)C` (stereo partly shown) [MDC-407] as the compound, how does the “50% growth inhibition (GI50) activity” value [3] read?
A: Its value is “in the same magnitude range as paclitaxel or docetaxel”.

Q: How did the “50% growth inhibition (GI50) activity” value [3] turn out when `CC(=O)O[C@@]12CO[C@@H]1C[C@H](O)[C@@]1(C)C(=O)[C@H](O)C3=C(C)[C@@H](OC(=O)[C@H](OC(=O)CCC(=O)NCCCCC(NC(=O)CC[C@H](NC(=O)C(C)NC(=O)/C=C/c4ccc(F)c(F)c4)C(N)=O)C(N)=O)[C@@H](NC(=O)OC(C)(C)C)c4ccccc4)C[C@@](O)([C@@H](OC(=O)c4ccccc4)[C@H]21)C3(C)C` (stereo partly shown) [MDC-408] was run?
A: The value was “in the same magnitude range as paclitaxel or docetaxel”.

Q: `CC(=O)O[C@H]1C(=O)[C@@]2(C)[C@H]([C@H](OC(=O)c3ccccc3)[C@]3(O)C[C@H](OC(=O)[C@H](OC(=O)CCC(=O)NCCCCC(NC(=O)CC[C@H](NC(=O)C(C)NC(=O)c4ccc5ccccc5n4)C(N)=O)C(N)=O)[C@@H](NC(=O)c4ccccc4)c4ccccc4)C(C)=C1C3(C)C)[C@]1(OC(C)=O)CO[C@@H]1C[C@@H]2O` (stereo partly shown) [MTC-213] was tested. Which “50% growth inhibition (GI50) activity” value [2] did it give?
A: The value was “in the same magnitude range as paclitaxel”.

Q: For `CC(=O)O[C@H]1C(=O)[C@@]2(C)[C@H]([C@H](OC(=O)c3ccccc3)[C@]3(O)C[C@H](OC(=O)[C@H](OC(=O)CCC(=O)NCCCCC(NC(=O)CC[C@H](NC(=O)C(C)NC(=O)/C=C/c4ccc(O)cc4)C(N)=O)C(N)=O)[C@@H](NC(=O)c4ccccc4)c4ccccc4)C(C)=C1C3(C)C)[C@]1(OC(C)=O)CO[C@@H]1C[C@@H]2O` (stereo partly shown) [MTC-301], which “50% growth inhibition (GI50) activity” value [3] is on record?
A: The value was “in the same magnitude range as paclitaxel or docetaxel”.

Q: Which “50% growth inhibition (GI50) activity” value [3] does the source give for `CC(=O)O[C@H]1C(=O)[C@@]2(C)[C@H]([C@H](OC(=O)c3ccccc3)[C@]3(O)C[C@H](OC(=O)[C@H](OC(=O)CCC(=O)NCCCCC(NC(=O)CC[C@H](NC(=O)C(C)NC(=O)/C=C/c4ccc(F)cc4F)C(N)=O)C(N)=O)[C@@H](NC(=O)c4ccccc4)c4ccccc4)C(C)=C1C3(C)C)[C@]1(OC(C)=O)CO[C@@H]1C[C@@H]2O` (stereo partly shown) [MTC-303] here?
A: The value was “in the same magnitude range as paclitaxel or docetaxel”.

Q: How did the “50% growth inhibition (GI50) activity” value [3] turn out when `CC(=O)O[C@H]1C(=O)[C@@]2(C)[C@H]([C@H](OC(=O)c3ccccc3)[C@]3(O)C[C@H](OC(=O)[C@H](OC(=O)CCC(=O)NCCCCC(NC(=O)CC[C@H](NC(=O)C(C)NC(=O)/C=C/c4ccc(Cl)cc4F)C(N)=O)C(N)=O)[C@@H](NC(=O)c4ccccc4)c4ccccc4)C(C)=C1C3(C)C)[C@]1(OC(C)=O)CO[C@@H]1C[C@@H]2O` (stereo partly shown) [MTC-304] was run?
A: Its value is “in the same magnitude range as paclitaxel or docetaxel”.

Q: Which “50% growth inhibition (GI50) activity” value [3] does the source give for `CC(=O)O[C@H]1C(=O)[C@@]2(C)[C@H]([C@H](OC(=O)c3ccccc3)[C@]3(O)C[C@H](OC(=O)[C@H](OC(=O)CCC(=O)NCCCCC(NC(=O)CC[C@H](NC(=O)C(C)NC(=O)/C=C/c4ccc(F)cc4Cl)C(N)=O)C(N)=O)[C@@H](NC(=O)c4ccccc4)c4ccccc4)C(C)=C1C3(C)C)[C@]1(OC(C)=O)CO[C@@H]1C[C@@H]2O` (stereo partly shown) [MTC-305] here?
A: Its value is “in the same magnitude range as paclitaxel or docetaxel”.

Q: `CC(=O)O[C@H]1C(=O)[C@@]2(C)[C@H]([C@H](OC(=O)c3ccccc3)[C@]3(O)C[C@H](OC(=O)[C@H](OC(=O)CCC(=O)NCCCCC(NC(=O)CC[C@H](NC(=O)C(C)NC(=O)/C=C/c4ccc(F)cc4)C(N)=O)C(N)=O)[C@@H](NC(=O)c4ccccc4)c4ccccc4)C(C)=C1C3(C)C)[C@]1(OC(C)=O)CO[C@@H]1C[C@@H]2O` (stereo partly shown) [MTC-306] was tested. Which “50% growth inhibition (GI50) activity” value [3] did it give?
A: The value was “in the same magnitude range as paclitaxel or docetaxel”.

Q: For `CC(=O)O[C@H]1C(=O)[C@@]2(C)[C@H]([C@H](OC(=O)c3ccccc3)[C@]3(O)C[C@H](OC(=O)[C@H](OC(=O)CCC(=O)NCCCCC(NC(=O)CC[C@H](NC(=O)C(C)NC(=O)/C=C/c4cccc(F)c4)C(N)=O)C(N)=O)[C@@H](NC(=O)c4ccccc4)c4ccccc4)C(C)=C1C3(C)C)[C@]1(OC(C)=O)CO[C@@H]1C[C@@H]2O` (stereo partly shown) [MTC-307], which “50% growth inhibition (GI50) activity” value [3] is on record?
A: Its value is “in the same magnitude range as paclitaxel or docetaxel”.

Q: For `CC(=O)O[C@H]1C(=O)[C@@]2(C)[C@H]([C@H](OC(=O)c3ccccc3)[C@]3(O)C[C@H](OC(=O)[C@H](OC(=O)CCC(=O)NCCCCC(NC(=O)CC[C@H](NC(=O)C(C)NC(=O)/C=C/c4ccc(F)c(F)c4)C(N)=O)C(N)=O)[C@@H](NC(=O)c4ccccc4)c4ccccc4)C(C)=C1C3(C)C)[C@]1(OC(C)=O)CO[C@@H]1C[C@@H]2O` (stereo partly shown) [MTC-308], which “50% growth inhibition (GI50) activity” value [3] is on record?
A: Its value is “in the same magnitude range as paclitaxel or docetaxel”.
